Experimental data taken from US4923853A, “Process for enhancing the activity of plant protecting agents by using cyclodextrin” (Chinoin Gyogyszer Es Vegyeszeti Termekek Gyara R.T., priority 1985, dated 1990).
≈ marks a conversion by molar mass, not a printed value.

Assays:
[1] = cited from earlier work; for duration of pesticide activity: on forming complexes with cyclodextrin
[2] = cited from earlier work; for volatility of the active ingredient: on forming complexes with cyclodextrin
[3] = test system: test fungi; assay: Fungicidal activity of metomeclan with cyclodextrin, general statement; format: cell-based
Experimental: The following tests substantiate the surprising synergism between known fungicides and β-cyclodextrin. Stable, highly dispersed aqueous suspensions of the test materials are added to agar nutrient media in the desired concentration (0.1-200 μg/ml), whereupon the nutrient media are poured into Petri-dishes. Mycelium discs are cut out from the surfacial cultures of the test fungi and the discs are placed into the Petri-dishes containing the test materials. Incubation is carried out in thermostate whereupon the increase of the diameter of the colonies is measured and compared to that of the control. The tests are carried out in three replicates.

[4] = cited from earlier work
[5] = test system: wheat powdery mildew; assay: In vivo test on wheat-powdery mildew (host-parasite)
Experimental: In vivo tests are carried out on wheat-powdery mildew (host-parasite) by using a combination of phenarimol [2,4'-dichloro-α--(pyrimidine-5-yl)-diphenyl-ethanol] and β-cyclodextrin. The tests are carried out in three replicates in phytotrone under usual experimental system and environmental conditions (20° C., humidity 90%, light intensity 9000 lux.) In culturing dishes (diameter 11 cm) as average 160 plants (5-6 cm stage) are treated with 8 ml of stable aqueous suspensions comprising the test material. The inhibition activity is calculated on the basis of the Hinfner-Papp formula by using the infectedness index.

[6] = Solubility of benomyl under the effect of β-cyclodextrin (shaking in water, UV); format: physicochemical; conditions: water 25° C.; for solubility thermodynamic at 10 min / solubility thermodynamic at 20 min / solubility thermodynamic at 40 min / solubility thermodynamic at 80 min / solubility thermodynamic at 2 h: water, read-out: Amount of dissolved benomyl
Experimental: (Benomyl and benomyl+β-cyclodextrin, respectively, are shaken in water at 25° C., the samples are filtered and the dissolved benomyl contents of the filtrates are determined by UV spectrophotometry).

[7] = Solubility of benomyl from various materials incl. Fundazol under the effect of β-cyclodextrin; format: physicochemical
Experimental: Benomyl is put on the market under the commercial name Fundazol 50 WP; benomyl active ingredient content: 50%. In Table 3 the solubility data of benomyl, a mixture of benomyl and cyclodextrin, Fundazol 50 WP, and a mixture of Fundazol 50 WP and cyclodextrin are shown. In each experiment […] of the test substance are weighed in and shaken at 25° C. Benomyl is a 100% active ingredient; the benomyl content of the benomyl/cyclodextrin mixture amounts to 17.3%; the benomyl content of Fundazol 50 WP is 50%; the benomyl content of the mixture of Fundazol 50 WP and cyclodextrin amounts to 8.65%.
2000 μg/ml of solid material are weighed in which corresponds to the following amounts of benomyl:
in the case of benomyl: 2000 μg/ml
in the case of benomyl+β-CD: 350 μg/ml++1650 μg β-CD
in the case of Fundazol 50 WP: 1000 μg/ml
in the case of Fundazol 50 WP+β-CD: 175 μg/ml++1650 μg β-CD.

[8] = test system: Alternaria tenuis; assay: Fungistatical effect of β-cyclodextrin (agar, colony diameter); format: cell-based; conditions: Alternaria alternata
Experimental: (§1) The fungistatical activity of cyclodextrins has never been disclosed in prior art.
(§2) Agar nutrient media comprising 0.1-0.2 -0.5-1.0-2.0-5.0-10.0-20.0-100.0- 200.0-400.0-800.0-1200.0-1500.0-2000.0-3000.0 μg β-cyclodextrin/ml, respectively, are prepared in Petri-dishes. Mycelium discs are cut out from surface cultures of three test fungi and are placed onto the agar nutrient media in the Petri-dishes. Incubation is carried out in a thermostate whereupon the increase of the diameter of the colonies is determined and compared to that of the control. The morphology of the colonies and the diffusion of the dye-substance produced by the fungi into the nutrient medium are evaluated as well.
(§3) The fungistatical effect of cyclodextrin manifests itself in the changed morphology, structure and color of the colonies and in the amount of the dyestuff penetrated into the nutrient medium. However at higher dose range the effect of cyclodextrin is already of a quantitative nature, thus the decrease of the diameter of the colonies can be measured and the amount of the biomass formed is reduced to a rate which can be evaluated (Table 1).

[9] = test system: Rhizoctonia solani; assay: as above; format: cell-based
Experimental: as §1, §2, §3

[10] = test system: Sclerotinia sclerotiorum; assay: as above; format: cell-based
Experimental: as §1, §2, §3

[11] = test system: three test fungi; assay: Fungistatical effect of β-cyclodextrin, morphology and surfacial cultures; format: cell-based; conditions: surfacial cultures
Experimental: as §2, §3

[12] = 10 minutes, weighed in 1000 μg/ml benomyl, or 170 μg benomyl + 830 μg/ml β-CD
[13] = 10 minutes, weighed in 5000 μg/ml benomyl, or 850 μg benomyl + 4150 μg/ml β-CD
[14] = 20 minutes, weighed in 1000 μg/ml benomyl, or 170 μg benomyl + 830 μg/ml β-CD
[15] = 20 minutes, weighed in 5000 μg/ml benomyl, or 850 μg benomyl + 4150 μg/ml β-CD
[16] = 40 minutes, weighed in 1000 μg/ml benomyl, or 170 μg benomyl + 830 μg/ml β-CD
[17] = 40 minutes, weighed in 5000 μg/ml benomyl, or 850 μg benomyl + 4150 μg/ml β-CD
[18] = 80 minutes, weighed in 1000 μg/ml benomyl, or 170 μg benomyl + 830 μg/ml β-CD
[19] = 80 minutes, weighed in 5000 μg/ml benomyl, or 850 μg benomyl + 4150 μg/ml β-CD
[20] = 120 minutes, weighed in 1000 μg/ml benomyl, or 170 μg benomyl + 830 μg/ml β-CD
[21] = 120 minutes, weighed in 5000 μg/ml benomyl, or 850 μg benomyl + 4150 μg/ml β-CD

O=P(O)(O)CCCl
ethylene release on contacting with plant tissue ([1]; complex with cyclodextrin): long-lasting process

COP(=S)(OC)Oc1ccc([N+](=O)[O-])cc1 [Methyl-parathion, 0,0-dimethyl-0-4-nitrophenyl-phosphorothioate]
stability against light and oxygen ([2]; cyclodextrin complexes): increase the stability against light and oxygen to a considerable extent

COCC1CC(=O)N(c2cc(Cl)cc(Cl)c2)C1=O (centres unmarked) [Metomeclan, 1-(3,5-dichlorophenyl)-3-methoxymethyl-pyrrolidine-2,5-dione]
activity on addition of cyclodextrin (in words) [3]: significantly increased
solubility in water [4]: insoluble in water

OC(c1ccc(Cl)cc1)(c1cncnc1)c1ccccc1Cl (stereo not drawn) [Phenarimol, 2,4'-dichloro-α-(pyrimidine-5-yl)--diphenyl-methanol]
Inhibition activity % ([5]; phenarimol concentration 0.625 μg/ml): 29.4%
Inhibition activity % ([5]; phenarimol concentration 1.25 μg/ml): 73.5%
Inhibition activity % ([5]; phenarimol concentration 2.5 μg/ml): 87.2%
Inhibition activity % ([5]; phenarimol concentration 5 μg/ml): 99.4%
Inhibition activity % ([5]; phenarimol concentration 10 μg/ml): 100.0%

CCCCNC(=O)n1c(NC(=O)OC)nc2ccccc21 [benomyl, 1-butylcarbamoyl-benzimidazole-2-methyl-carbamate]
Amount of dissolved benomyl, % [6, 12]: 0.2%
Amount of dissolved benomyl, % [6, 13]: 0.07%
Amount of dissolved benomyl, % [6, 14]: 0.3%
Amount of dissolved benomyl, % [6, 15]: 0.08%
Amount of dissolved benomyl, % [6, 16]: 0.45%
Amount of dissolved benomyl, % [6, 17]: 0.12%
Amount of dissolved benomyl, % [6, 18]: 0.5%
Amount of dissolved benomyl, % [6, 19]: 0.16%
Amount of dissolved benomyl, % [6, 20]: 0.5%
Amount of dissolved benomyl, % [6, 21]: 0.19%
solubility thermodynamic at 10 min [6, 12]: 2 µg/mL
solubility thermodynamic at 10 min [6, 13]: 3.5 µg/mL
solubility thermodynamic at 20 min [6, 14]: 3 µg/mL
solubility thermodynamic at 20 min [6, 15]: 4 µg/mL
solubility thermodynamic at 40 min [6, 16]: 4.5 µg/mL
solubility thermodynamic at 40 min [6, 17]: 6 µg/mL
solubility thermodynamic at 80 min [6, 18]: 5 µg/mL
solubility thermodynamic at 80 min [6, 19]: 8 µg/mL
solubility thermodynamic at 2 h [6, 20]: 5 µg/mL
solubility thermodynamic at 2 h [6, 21]: 9.5 µg/mL
solubility thermodynamic at 10 min ([7]; 10 minutes, shaking in water at 25° C., read-out: Dissolved benomyl): 2 µg/mL (≈ 6.89 µM)
solubility thermodynamic at 20 min ([7]; 20 minutes, shaking in water at 25° C., read-out: Dissolved benomyl): 5 µg/mL (≈ 17.2 µM)
solubility thermodynamic at 40 min ([7]; 40 minutes, shaking in water at 25° C., read-out: Dissolved benomyl): 6 µg/mL (≈ 20.7 µM)
solubility thermodynamic at 80 min ([7]; 80 minutes, shaking in water at 25° C., read-out: Dissolved benomyl): 7 µg/mL (≈ 24.1 µM)
solubility thermodynamic at 2 h ([7]; 120 minutes, shaking in water at 25° C., read-out: Dissolved benomyl): 8 µg/mL (≈ 27.6 µM)
solubility thermodynamic at 160 min ([7]; 160 minutes, shaking in water at 25° C., read-out: Dissolved benomyl): 9 µg/mL (≈ 31 µM)
further increase of the solubility caused by cyclodextrin ([7]; on addition of cyclodextrin, water 25° C.): 1.5-2 -fold
decomposition when dissolved in water ([4]; to methyl-benzimidazole carbamate): rapidly decomposes
solubility in water [4]: poorly soluble in water

CCN(CC)C(=O)SCc1ccc(Cl)cc1 [bentiocarb, S-4-chlorobenzyl-diethylthio carbamate]
duration of pesticide activity [1]: remains sufficient for a longer period of time
volatility of the active ingredient [2]: significantly decreased

N#Cc1c(Cl)cccc1Cl [dichlobenyl, 2,6-dichloro-benzonitrile]
sublimation ([2]; uncomplexed, inhibited by forming complex with cyclodextrin): easily sublimates

COP(=O)(OC)OC=C(Cl)Cl [dichlorphos, 2,2--dichlorovinyl-dimethyl-phosphate]
duration of pesticide activity [1]: remains sufficient for a longer period of time
volatility of the active ingredient [2]: significantly decreased

COC(=O)Nc1nc2ccccc2[nH]1 [methyl-benzimidazole carbamate, 2-carbomethoxyamino-benzimidazole]
solubility in water [4]: still less soluble in water

CCSC(=O)N1CCCCCC1 [molinate, S-ethyl-N,N-hexamethylene-thiocarbamate]
duration of pesticide activity [1]: remains sufficient for a longer period of time
volatility of the active ingredient [2]: significantly decreased

OC[C@H]1O[C@@H]2O[C@H]3[C@H](O)[C@@H](O)[C@@H](O[C@H]4[C@H](O)[C@@H](O)[C@@H](O[C@H]5[C@H](O)[C@@H](O)[C@@H](O[C@H]6[C@H](O)[C@@H](O)[C@@H](O[C@H]7[C@H](O)[C@@H](O)[C@@H](O[C@H]8[C@H](O)[C@@H](O)[C@@H](O[C@H]1[C@H](O)[C@H]2O)O[C@@H]8CO)O[C@@H]7CO)O[C@@H]6CO)O[C@@H]5CO)O[C@@H]4CO)O[C@@H]3CO [β-cyclodextrin]
inhibition at 200 µg/mL ([8]; β-cyclodextrin 200 μg/ml): 7%
inhibition at 400 µg/mL ([8]; β-cyclodextrin 400 μg/ml): 10%
inhibition at 1500 µg/mL ([8]; β-cyclodextrin 1500 μg/ml): 12%
inhibition at 3000 µg/mL ([8]; β-cyclodextrin 3000 μg/ml): 14%
inhibition at 200 µg/mL ([9]; β-cyclodextrin 200 μg/ml): 3%
inhibition at 400 µg/mL ([9]; β-cyclodextrin 400 μg/ml): 6%
inhibition at 1500 µg/mL ([9]; β-cyclodextrin 1500 μg/ml): 17%
inhibition at 3000 µg/mL ([9]; β-cyclodextrin 3000 μg/ml): 19%
inhibition at 200 µg/mL ([10]; β-cyclodextrin 200 μg/ml): 12%
inhibition at 400 µg/mL ([10]; β-cyclodextrin 400 μg/ml): 12%
inhibition at 1500 µg/mL ([10]; β-cyclodextrin 1500 μg/ml): 14%
inhibition at 3000 µg/mL ([10]; β-cyclodextrin 3000 μg/ml): 16%
formation of the propagative organs [11]: inhibits the formation of the propagative organs
